Results: PMC6211276, “Computer-aided molecular design of pyrazolotriazines targeting glycogen synthase kinase 3” (Journal of Enzyme Inhibition and Medicinal Chemistry, 2018)

Columns and labels:
GSK-3β [1] = target: T1, GSK-3β (Homo sapiens, UniProt P49841); assay: Inhibition of GSK-3β (Kinase-Glo luminescent assay); type: biochemical; design: purchased Millipore (Millipore Ibérica SAU); details: for GSK-3 inhibition at a fixed compound concentration: fixed compound concentration of 10 μM; for IC50: mean of three independent determinations, 1 μM ATP
T1 sequence (P49841 whole entry): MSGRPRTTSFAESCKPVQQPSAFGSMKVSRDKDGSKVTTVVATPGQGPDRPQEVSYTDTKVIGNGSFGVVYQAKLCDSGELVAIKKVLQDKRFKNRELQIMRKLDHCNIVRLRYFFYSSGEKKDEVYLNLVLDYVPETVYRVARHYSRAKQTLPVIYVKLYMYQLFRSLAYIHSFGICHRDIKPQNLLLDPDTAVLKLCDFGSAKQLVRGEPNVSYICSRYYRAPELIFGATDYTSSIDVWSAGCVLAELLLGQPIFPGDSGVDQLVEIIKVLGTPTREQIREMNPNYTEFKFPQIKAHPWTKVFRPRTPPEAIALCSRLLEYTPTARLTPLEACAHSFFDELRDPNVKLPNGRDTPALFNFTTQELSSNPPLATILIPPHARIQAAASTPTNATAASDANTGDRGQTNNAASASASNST
Description: Human recombinant GSK-3β and the pre-phosphorylated polypeptide substrate were purchased from Millipore (Millipore Ibérica SAU). Kinase-Glo Luminescent Kinase Assay was obtained from Promega (Promega Biotech Ibérica, SL)[29]. ATP and all other reagents were from Sigma Aldrich (St. Louis, MO). Assay buffer contained 50 mM HEPES (pH 7.5), 1 mM EDTA, 1 mM EGTA, and 15 mM magnesium acetate.
The method of Baki et al. was followed to analyse the inhibition of GSK-3β[30]. Kinase-Glo assays were performed in assay buffer using black 96-well plates. In a typical assay, 10 μL (10 μM) of test compound (dissolved in dimethyl sulfoxide [DMSO] at 1 mM concentration and diluted in advance in assay buffer to the desired concentration) and 10 μL (20 ng) of enzyme were added to each well followed by 20 μL of assay buffer containing 25 μM substrate and 1 μM ATP. […] After 30 min incubation at 30 °C, the enzymatic reaction was stopped with 40 μL of Kinase-Glo reagent. Glow-type luminescence was recorded after 10 min using a FLUOstar Optima (BMG Labtechnologies GmbH, Offenburg, Germany) multimode reader. The activity is proportional to the difference of the total and consumed ATP. The inhibitory activities were calculated based on maximal activities measured in the absence of inhibitor.

[2] = In vitro parallel artificial membrane permeability assay (PAMPA-BBB); details: for Papp at 4 h: pig, PAMPA, pH 7.4; for BBB prediction: predictive penetration in the CNS from PAMPA-BBB Pe; for ability to cross the BBB by passive permeation: prediction from PAMPA-BBB Pe
Description: Prediction of the brain penetration was evaluated using a parallel artificial membrane permeability assay (PAMPA). Ten commercial drugs, phosphate buffer saline solution at pH 7.4 (PBS), ethanol, and dodecane were purchased from Sigma Aldrich, Across organics and Fluka. […] Filter PDVF membrane units (diameter 30 mm, pore size 0.45 μm) from Symta were used to filter the samples. A 96-well plate UV, (Thermoscientific, Varioskan Lux multimode microplate reader) was used for the UV measurements. […] Then 100 μL of this compound stock solution was taken, and 1400 μL of ethanol and 3500 μL of PBS pH 7.4 buffer were added to reach 30% of ethanol concentration in the experiment. These solutions were filtered. The acceptor 96-well microplate was filled with 180 μL of PBS:ethanol (70:30). The donor 96-well plate was coated with 4 μL of porcine brain lipid in dodecane (20 mg mL^−1), and after 5 min, 180 μL of each compound solution was added. Then 1−2 mg of every compound to be determined for their ability to pass the brain barrier were dissolved in 1500 μL of ethanol and 3500 μL of PBS pH 7.4 buffer, filtered, and then added to the donor 96-well plate. […] During this time, the compounds diffused from the donor plate through the brain lipid membrane into the acceptor plate. After incubation, the donor plate was removed. The concentration of compounds and commercial drugs in the acceptor and the donor wells was determined by UV plate reader. Every sample was analysed at three to five wavelengths, in three wells and in three independent runs. […] Ten quality control compounds (previously mentioned) of known BBB permeability were included in each experiment to validate the analysis set.

SH-SY5Y cells = assay: Okadaic acid-induced tau hyperphosphorylation cell model (MTT cell viability); type: cell-based, human; details: for cell viability (MTT test) in OA-induced neurodegeneration cell model: compound 10 µM for 1 h, then OA 30 nM for 24 h
Description: Human SH-SY5Y cells were grown in DMEM supplemented with 10% FBS and 1% penicillin/streptomycin at 37 °C and 5% CO2 in an incubator. SH-SY5Y cells were seeded onto 96-well plate at 60.000 cells per well. 48 h later, cells were pre-incubated with the compounds at the desired concentration for 1 h and after that time okadaic acid (OA) (Sigma Aldrich, catalogue no: 09381) was added at a concentration of 30 nM and incubated for another 24 h. Afterwards, cells were incubated with 0.5 mg mL^−1 MTT solution for at least 4 h at 37 °C and 5% CO2. Then culture media was removed and the formazan crystals attached to the bottom of the plate were dissolved with 200 µL of DMSO. Finally, UV-absorbance was measured at 595 nm in a microplate reader (Varioskan Flash Microplate reader, Thermo Scientific).

GSK-3β [3] = target: T1, GSK-3β; assay: Kinetic studies on GSK-3β (ADP-Glo Kinase Assay, varying ATP); type: biochemical; details: inhibitor at 0.5 and 1 μM, ATP 1 to 50 μM, GS-2 constant at 12.5 μM; Lineweaver–Burk
Description: To investigate the inhibitory mechanism of compounds 5 on GSK-3β, several kinetic experiments were performed using the ADP-Glo Kinase Assay. Kinetic experiments varying both ATP (from 1 to 50 μM) and the inhibitor (at 0.5 and 1 μM) concentrations were performed, while the concentration of GS-2 was kept constant at 12.5 μM.

[4] = PAMPA-BBB, reported permeability; cited from earlier work

| SMILES | IC50 (GSK-3β [1]) [µM] | Papp at 4 h [2] [nm/s] | BBB prediction [2] | melting point | further results |
| --- | --- | --- | --- | --- | --- |
| O=c1[nH]nnc2c1cnn2-c1ccccc1 [4a] | – | – | – | – | GSK-3 inhibition at a fixed compound concentration (GSK-3β [1]): inactive |
| O=c1[nH]nnc2c1cnn2-c1ccc(F)cc1 [4e] | – | – | – | – | GSK-3 inhibition at a fixed compound concentration (GSK-3β [1]): inactive |
| CCOC(=O)c1c2nn[nH]c(=O)c2nn1-c1ccccc1 [5a, ethyl 4-oxo-6-phenyl-4,6-dihydro-3H-pyrazolo[4,3-d][1,2,3]triazine-7-carboxylate] | 4 ± 0.2 | 11 ± 6 | CNS− | 191.5 to 193 °C | – |
| CCOC(=O)c1c2nn[nH]c(=O)c2nn1-c1ccc(C)cc1 [5b, ethyl 4-oxo-6-(p-tolyl)-4,6-dihydro-3H-pyrazolo[4,3-d][1,2,3]triazine-7-carboxylate] | 0.9 ± 0.1 | 23 ± 3 | CNS+/− | 193 to 196 °C | cell viability (MTT test) in OA-induced neurodegeneration cell model (SH-SY5Y cells): able to increase the cell viability; type of inhibition on GSK-3 (GSK-3β [3]): ATP-competitive |
| CCOC(=O)c1c2nn[nH]c(=O)c2nn1-c1ccc(OC)cc1 [5c, ethyl 6-(4-methoxyphenyl)-4-oxo-4,6-dihydro-3H-pyrazolo[4,3-d][1,2,3]triazine-7-carboxylate] | 1.7 ± 0.3 | 16 ± 5 | CNS+/− | 194 °C (dec.) | – |
| CCOC(=O)c1c2nn[nH]c(=O)c2nn1-c1ccc(Cl)cc1 [5e, ethyl 6-(4-chlorophenyl)-4-oxo-4,6-dihydro-3H-pyrazolo[4,3-d][1,2,3]triazine-7-carboxylate] | 3.3 ± 0.3 | 29 ± 7 | CNS+/− | 198 °C (dec.) | ability to cross the BBB by passive permeation [2]: in the limit of a positive prediction |
| CCOC(=O)c1c2nn[nH]c(=O)c2nn1-c1ccc(Br)cc1 [5f, ethyl 6-(4-bromophenyl)-4-oxo-4,6-dihydro-3H-pyrazolo[4,3-d][1,2,3]triazine-7-carboxylate] | 1.4 ± 0.4 | 32 ± 1 | CNS+ (CNS + when they present a permeability >3.1 × 10^−6 cm s^−1) | 195 °C (dec.) | cell viability (MTT test) in OA-induced neurodegeneration cell model (SH-SY5Y cells): able to increase the cell viability; ability to cross the BBB by passive permeation [2]: would be able to cross the BBB by passive permeation |
| CCOC(=O)c1c2nn[nH]c(=O)c2nn1-c1ccc(I)cc1 [5g, ethyl 6-(4-iodophenyl)-4-oxo-4,6-dihydro-3H-pyrazolo[4,3-d][1,2,3]triazine-7-carboxylate] | 0.8 ± 0.2 | 50 ± 10 | CNS+ (CNS + when they present a permeability >3.1 × 10^−6 cm s^−1) | 198 °C (dec.) | cell viability (MTT test) in OA-induced neurodegeneration cell model (SH-SY5Y cells): able to increase the cell viability; ability to cross the BBB by passive permeation [2]: would be able to cross the BBB by passive permeation |
| Cn1c(=O)c2c(ncn2C)n(C)c1=O [Caffeine, reference compound] | – | 11 ± 4 | – | – | – |
| CNCCCN1c2ccccc2CCc2ccccc21 [Desipramine, reference compound] | – | 104 ± 1 | – | – | – |
| CCn1cc(C(=O)O)c(=O)c2cc(F)c(N3CCNCC3)nc21 [Enoxacine, reference compound] | – | 11 ± 6 | – | – | – |
| C=C1[C@@H](O)[C@@H]2O[C@]3(CC[C@H](/C=C/[C@@H](C)[C@@H]4CC(C)=C[C@@]5(O[C@H](C[C@@](C)(O)C(=O)O)CC[C@H]5O)O4)O3)CC[C@H]2O[C@@H]1[C@@H](O)C[C@H](C)[C@H]1O[C@@]2(CCCCO2)CC[C@H]1C [OA, okadaic acid, reference compound] | – | – | – | – | decrease in cell viability (SH-SY5Y cells; OA at 30 nM, MTT): higher than 70% |
| CN1C(C(=O)Nc2ccccn2)=C(O)c2ccccc2S1(=O)=O [Piroxicam] | – | – | – | – | Pe bibli. [4]: 2.5 10^−6 cm s^−1 |
| CN(C)CCCN1c2ccccc2Sc2ccccc21 [Promazine, reference compound] | – | 84 ± 3 | – | – | Pe bibli. [4]: 8.8 10^−6 cm s^−1 |
| Cn1sc(=O)n(Cc2ccccc2)c1=O [TDZD-8, reference compound] | – | – | – | – | cell viability (MTT test) in OA-induced neurodegeneration cell model (SH-SY5Y cells): increase the cell viability |
